“And” between values parts separate entries of the source, which are not always exact repeats. Equal entries are not always repeated.
Columns and labels:
[1] = 101 kPa, Liquid
[2] = refractive index (Na D-line) (dimensionless); conditions: 298.15 K; 101.33 kPa; Liquid
[3] = refractive index (Na D-line) (dimensionless); xn = mol fraction of the nth substance listed; conditions: 298.15 K, 101 kPa, Liquid
[4] = xn = mol fraction of the nth substance listed; conditions: 101 kPa, Liquid

CCOS(=O)(=O)[O-].CCn1cc[n+](C)c1 [1-ethyl-3-methylimidazolium ethyl sulfate]
[1]
Conditions	mass density [kg/m3]	speed of sound	viscosity [mPa·s]
298.15 K	1237.6	1679 m/s	97.58
313.15 K	1227.5	1641 m/s and 1642 m/s and 1643 m/s	50.01
328.15 K	1217.5	1605 m/s	29.18

Conditions	refractive index
[2]	1.4794

CCOS(=O)(=O)[O-].CCn1cc[n+](C)c1 [1-ethyl-3-methylimidazolium ethyl sulfate] + CC(C)O
[3]
Conditions	refractive index
x2 = 0	1.4794
x2 = 0.1228	1.47434
x2 = 0.2066	1.47057
x2 = 0.309	1.46502
x2 = 0.399	1.45926
x2 = 0.4977	1.45177
x2 = 0.6341	1.43881
x2 = 0.7223	1.42818
x2 = 0.8551	1.40784
x2 = 0.9706	1.38306

[4]
Conditions	mass density, 298.15 K [kg/m3]	mass density, 313.15 K [kg/m3]	mass density, 328.15 K [kg/m3]	speed of sound, 298.15 K [m/s]	speed of sound, 313.15 K [m/s]	speed of sound, 328.15 K [m/s]	viscosity, 298.15 K [mPa·s]	viscosity, 313.15 K [mPa·s]	viscosity, 328.15 K [mPa·s]
x2 = 0	1237.6	1227.5	1217.5	1679	1643	1605	97.58	50.01	29.18
x2 = 0.1228	1214.3	1204.4	1194.5	1644	1608	1569	69.71	37.79	22.97
x2 = 0.2066	1196.4	1186.4	1176.3	1611	1576	1537	53.67	30.34	18.93
x2 = 0.309	1170.9	1160.9	1150.7	1570	1534	1494	40.1	23.56	15.2
x2 = 0.399	1144.9	1134.7	1124.3	1529	1491	1451	29.79	18.23	12.1
x2 = 0.4977	1111.8	1101.3	1090.7	1475	1439	1399	21.14	13.41	9.184
x2 = 0.6341	1054.2	1043.5	1032.6	1399	1360	1318	12.4	8.274	5.878
x2 = 0.7223	1008.5	997.4	986.2	1342	1302	1259	8.462	5.753	4.15
x2 = 0.8551	920.2	908.6	896.6	1251	1207	1161	4.475	3.081	2.225
x2 = 0.9706	814.1	801.7	788.5	1164	1113	1063	2.499	1.658	1.147

CCOS(=O)(=O)[O-].CCn1cc[n+](C)c1 [1-ethyl-3-methylimidazolium ethyl sulfate] + CCCO
[3]
Conditions	refractive index
x2 = 0	1.4794
x2 = 0.1619	1.47317
x2 = 0.2104	1.47102
x2 = 0.336	1.46449
x2 = 0.5159	1.4524
x2 = 0.7298	1.43139
x2 = 0.8046	1.42139
x2 = 0.8894	1.40743
x2 = 0.9401	1.39739
x2 = 0.9727	1.39003

[4]
Conditions	mass density, 298.15 K [kg/m3]	mass density, 313.15 K [kg/m3]	mass density, 328.15 K [kg/m3]	speed of sound, 298.15 K [m/s]	speed of sound, 313.15 K [m/s]	speed of sound, 328.15 K [m/s]	viscosity, 298.15 K [mPa·s]	viscosity, 313.15 K [mPa·s]	viscosity, 328.15 K [mPa·s]
x2 = 0	1237.6	1227.5	1217.5	1679	1642	1605	97.58	50.01	29.18
x2 = 0.1619	1208.1	1197.9	1187.6	1637	1600	1565	60.85	33.73	20.84
x2 = 0.2104	1197.9	1187.6	1177.3	1620	1584	1548	52.11	29.56	18.59
x2 = 0.336	1167.4	1157.1	1146.7	1574	1537	1501	34.41	20.72	13.61
x2 = 0.5159	1111.6	1100.8	1090.2	1492	1456	1419	18.01	11.73	8.159
x2 = 0.7298	1015.5	1004.4	993.2	1382	1340	1300	7.296	5.125	3.774
x2 = 0.8046	970	958.6	947.2	1337	1294	1252	5.491	3.918	2.918
x2 = 0.8894	907.7	895.9	884	1284	1238	1193	3.577	2.58	1.923
x2 = 0.9401	862.5	850.6	838.5	1249	1201	1154	2.776	1.997	1.482
x2 = 0.9727	829.8	817.8	805.5	1227	1178	1130	2.419	1.729	1.272

CCOS(=O)(=O)[O-].CCn1cc[n+](C)c1 [1-ethyl-3-methylimidazolium ethyl sulfate] + CO
[3]
Conditions	refractive index
x2 = 0	1.4794
x2 = 0.1346	1.47491
x2 = 0.2595	1.47006
x2 = 0.3267	1.46675
x2 = 0.4741	1.45742
x2 = 0.5701	1.44913
x2 = 0.6664	1.43808
x2 = 0.7757	1.42043
x2 = 0.8294	1.4078
x2 = 0.923	1.37377
x2 = 0.9626	1.35299
x2 = 0.9917	1.33319

[4]
Conditions	mass density, 298.15 K [kg/m3]	mass density, 313.15 K [kg/m3]	mass density, 328.15 K [kg/m3]	speed of sound, 298.15 K [m/s]	speed of sound, 313.15 K [m/s]	speed of sound, 328.15 K [m/s]	viscosity, 298.15 K [mPa·s]	viscosity, 313.15 K [mPa·s]	viscosity, 328.15 K [mPa·s]
x2 = 0	1237.6	1227.5	1217.5	1679	1641	1605	97.58	50.01	29.18
x2 = 0.1346	1224.2	1214.1	1204	1663	1627	1588	60.93	33.83	20.92
x2 = 0.2595	1209.1	1199	1188.6	1640	1603	1564	39.32	23.4	15.25
x2 = 0.3267	1199.4	1189.1	1178.8	1624	1587	1549	30.59	18.94	12.65
x2 = 0.4741	1171.9	1161.3	1150.7	1583	1546	1506	16.38	11.02	7.887
x2 = 0.5701	1146.8	1135.9	1125.1	1547	1509	1469	10.12	7.173	5.387
x2 = 0.6664	1113.9	1102.9	1091.8	1500	1461	1420	6.45	4.776	3.661
x2 = 0.7757	1059	1047.5	1035.9	1423	1382	1340	3.232	2.508	2.02
x2 = 0.8294	1021.1	1009.2	997.3	1371	1330	1287	2.351	1.86	1.501
x2 = 0.923	924.9	912.2	899.3	1251	1207	1162	1.639	0.901	0.666
x2 = 0.9626	863.7	850.4	836.9	1187	1137	1090	1.263	0.66	0.551
x2 = 0.9917	806	792.2	777.7	1123	1076	1029	1.039	0.516	0.43

CO [methanol]
[1]
Conditions	mass density [kg/m3]	speed of sound [m/s]	viscosity [mPa·s]
298.15 K	786.4	1103	0.546
313.15 K	772.3	1055	0.446
328.15 K	757.8	1006	0.369

Conditions	refractive index
[2]	1.32687

CO [methanol] + CCOS(=O)(=O)[O-].CCn1cc[n+](C)c1
Conditions	refractive index
[3], x1 = 1	1.32687

[4], x1 = 1
Conditions	mass density [kg/m3]	speed of sound [m/s]	viscosity [mPa·s]
298.15 K	786.4	1103	0.546
313.15 K	772.3	1055	0.446
328.15 K	757.8	1006	0.369

CCCO [propan-1-ol]
[1]
Conditions	mass density [kg/m3]	speed of sound [m/s]	viscosity [mPa·s]
298.15 K	799.6	1207	2.017
313.15 K	787.4	1155	1.43
328.15 K	774.8	1105	1.041

Conditions	refractive index
[2]	1.3831

CCCO [propan-1-ol] + CCOS(=O)(=O)[O-].CCn1cc[n+](C)c1
Conditions	refractive index
[3], x1 = 1	1.3831

[4], x1 = 1
Conditions	mass density [kg/m3]	speed of sound [m/s]	viscosity [mPa·s]
298.15 K	799.6	1207	2.017
313.15 K	787.4	1155	1.43
328.15 K	774.8	1105	1.041

CC(C)O [propan-2-ol]
[1]
Conditions	mass density [kg/m3]	speed of sound [m/s]	viscosity [mPa·s]
298.15 K	780.7	1138	2.082
313.15 K	767.8	1085	1.354
328.15 K	753.9	1031	0.919

Conditions	refractive index
[2]	1.37495

CC(C)O [propan-2-ol] + CCOS(=O)(=O)[O-].CCn1cc[n+](C)c1
Conditions	refractive index
[3], x1 = 1	1.37495

[4], x1 = 1
Conditions	mass density [kg/m3]	speed of sound [m/s]	viscosity [mPa·s]
298.15 K	780.7	1138	2.082
313.15 K	767.8	1085	1.354
328.15 K	753.9	1031	0.919

Source: the NIST ThermoML archive (doi:10.1021/je700029q)
